What was measured:
LLC lung tumor = LLC lung tumor bearing mice with lung irradiation; format: in vivo, C57B6/L mice
Source text: (1) LLC murine lung cancer cell line was used to intravenously inoculate the C57B6/L mice to form lung metastatic tumors. About 24 days after 5×10^5 LLC cells were inoculated, nodules in the lung would develop. (2) The mice were divided into 4 groups, and each group contains 10 mice. The grouping methods are as followed: 1) Normal control group (Normal); 2) LLC tumor-bearing mice without irradiation group (LLC); 3) LLC tumor-bearing mice receiving lung irradiation without naringenin administration group (LLC+IR); 4) LLC tumor-bearing mice receiving lung irradiation with naringenin (Nar) administration group (LLC+IR+Nar); Set the day of inoculation as day 0. (6) 100 mg/kg naringenin (Nar) (suspended in 1% CMC-Na) was administered orally to each of the mice in LLC+IR+Nar group at day 12 after inoculation (namely 3 days before lung irradiation); (7) The mice received γ-ray irradiation with a dose of 12 Gy per mouse per time at day 14 after inoculation; (8) Continue to orally administrate 100 mg/kg naringenin (Nar) (suspended in 1% CMC-Na) to each of the mice in LLC+IR+Nar group at day 15 day after inoculation (namely 1 day after lung irradiation); (9) At day 21 after inoculation, 5 animals in each group were randomly selected for sample collection. After dissection, the blood and lung tissues were collected, and the lungs were weighed. Then the number of tumor nodules in the lungs were counted without destroying the complete structure of lung tissues. (10) At day 37 after inoculation, the remaining animals in each group were sacrificed and dissected. The blood and lung tissues were collected, and the lungs were weighed. Then the number of tumor nodules in the lungs were counted without destroying the complete structure of lung tissues. Serum was separated and assayed for inflammatory cytokines such as IL-6, IL-113, IFN-γ, etc. The lung tissues were used for biopsy and the observation of lung injury and inflammatory cells infiltration. […]

[1] = test system: inflammatory cytokine IL-1β; test: DNA fragment-induced IL-1β release from primary peritoneal macrophages (ELISA); format: cell-based, mouse; settings: 100 μM pretreatment 2 h, DNA fragments 100 ng/mL 24 h, supernatant ELISA
Protocol: 4% Brewer thioglycollate medium (1.5 ml/mouse) was intraperitoneally injected. Four days later, washing the abdominal cavity of these mice with serum-free medium (DMEM) (10 ml/mouse). The lavage fluids were collected and centrifuged at 1300 rpm for 5 minutes. The cell pellet was resuspended and seeded into a 24-well plate at the concentration of 2×10^6 cells/well. Two hours later, the non-adherent cells were carefully removed and the remaining adherent cells are primary peritoneal macrophages. Identification: Macrophage surface marker F4/80 was detected by flow cytometry using PE-labelled anti-F4/80 antibody (ebioscience). […] Sample treatment: The macrophages were pretreated with 100 μM naringenin (Nar) for 2 h, and then were stimulated with DNA fragments (100 ng/mL) for 24h. The supernatants were collected and the concentration of inflammatory cytokine IL-1β (pg/mL) in the supernatant was measured by ELISA.

[2] = Total antioxidant capacity (FRAP method); settings: 27 μM, absorbance 593 nm
Protocol: The total antioxidant capacity of several flavonoids was detected by the total antioxidant capacity test kit (FRAP method). The principle of the FRAP method is that the antioxidant can reduce ferric-tripyridyltriazine (Fe^3+-TPTZ) to produce a blue Fe^2+-TPTZ under an acidic condition. Measuring the blue Fe^2+-TPTZ at a wavelength of 593 nm to access the antioxidant capacity of the sample. Since the reaction is carried out under an acidic condition, some of the endogenous interference factors can be excluded. (1) Prepare proper amount of FRAP working solution according to the samples numbers referring to the following table. The FRAP working solution was incubated at 37° C. and used no longer than 1-2 hours. Prepare 10 species of flavonoids: quercetin (Que), daidzein (Dai), kaempferol (Kae), apigenin (Api), naringenin (Nar), genistein (Gen), hesperidin (Her), luteolin (Lut), chrysin (Chr) and nobiletin (Nob). Make the final concentration of each flavonoid to 27 μM. Dissolve 27.8 mg of FeSO4.7H2O provided by this kit and dilute to 1 ml to make the concentration to 100 mM. Take an appropriate amount of FeSO4 solution and dilute it to 0.15, 0.3, 0.6, 1.2 and 1.5 mM, respectively. Distilled water or sample preparation solution was used for the preparation of the standards. […] (3) Incubate the plate at 37° C. for 3-5 min, and then determine the absorbance at 593 nm. […]

[3] = test system: 4T1 breast tumor with lung metastasis; test: 4T1 breast tumor lung metastasis mice with lung irradiation: lung injury, nodules, cytokines; format: in vivo, Balb/C mice
Protocol: (1) Resuscitation and culture of 4T1 cells: Cell culture hood need to be sterilized by UV for 30 min before resuscitating the 4T1 cells. Equilibrate the RPMI 1640 culture medium (containing 10% fetal bovine serum) to room temperature for further application. The cryovial containing tumor cells are taken from liquid nitrogen storage and immediately put into a 37° C. water bath, shaking quickly until the cells are completely dissolved. Transfer the cells into a cell culture flask with 10-15 ml medium to suspend the sedimentary cells. After adjusting the concentration of the cells, culture the cells in an incubator with a saturated humidified atmosphere containing 5% (v/v) CO2 at 37° C. Replace fresh medium every day during. Digest the cells by 0.25% trypsin when the convergence of the cells reaches 90%, and then subculture the cells at a ratio of 1:3. On the day of experiment, we collect the cells by digesting the cells with 0.25% trypsin, then neutralize the trypsin with RPMI 1640 with 10% fetal bovine serum. Centrifuge the cells at 800 rpm, and then resuspend the cells in sterile PBS. After counting the density of cells, adjust the cells to 1×10^5/ml for tumor cells inoculation. (2) 4T1 cells are mixed well before inoculation. Pipet 0.3 ml of cells by a 1 ml sterile syringe, and inject 0.1 ml of cells per mouse (namely 1×10^4 4 T1 cells per mouse). (1) 4T1 murine breast tumor cell line was used to inoculate the tail vein of Balb/C mice to form lung metastatic tumors. 1×10^4 4 T1 cells were intravenously injected into the tail vein per mouse, and 10-15 days later nodules would develop in lung. (2) Set the day of inoculation as day 0. 200 mg/kg naringenin (Nar) (suspended in 1% CMC-Na) was administered orally to the mice at day 12 day after inoculation, namely 3 days before irradiation on the lungs. The mice received a 12 Gy of γ-ray irradiation once at day 14 after inoculation and keep naringenin administration. A part of the mice in each group were sacrificed at day 28 after inoculation and the blood, lung tissues were collected while the lungs were weighed. The tumor nodules in the lungs were observed under the condition of without destroying the integrity of lung tissues. Serum were separated and assayed for cytokines such as IL-6, IL-113, IFN-γ, etc. The lung tissues collected at day 28 after inoculation were used for biopsy and the observation of lung injury as well as inflammatory cells infiltration. The rest animals were used for survival observation. The mice in this experiment are separated into 4 groups as follows: • 1) Normal control group (Normal) • 2) 4T1 tumor-bearing mice without irradiation group (4T1) • 3) 4T1 tumor-bearing mice receiving lung irradiation without naringenin administration group (4T1+IR) • 4) 4T1 tumor-bearing mice receiving lung irradiation with naringenin administration group (4T1+IR+Nar) 3 groups of mice were inoculated with 4T1 tumor cells. Each group contains 12 mice with half male and half female which were fed in separate cages, and each cage contains 6 mice.

[4] = test system: 4T1 breast tumor with lung metastasis; test: Survival of mice bearing 4T1 breast tumor with lung metastasis after radiotherapy; format: in vivo, Balb/c mice
Protocol: (1) Resuscitation and culture of 4T1 cells: Cell culture hood need to be sterilized by UV for 30 min before resuscitating the 4T1 cells. Equilibrate the RPMI 1640 culture medium (containing 10% fetal bovine serum) to room temperature for further application. The cryovial containing tumor cells are taken from liquid nitrogen storage and immediately put into a 37° C. water bath, shaking quickly until the cells are completely dissolved. Transfer the cells into a cell culture flask with 10-15 ml medium to suspend the sedimentary cells. After adjusting the concentration of the cells, culture the cells in an incubator with a saturated humidified atmosphere containing 5% (v/v) CO2 at 37° C. Replace fresh medium every day during. Digest the cells by 0.25% trypsin when the convergence of the cells reaches 90%, and then subculture the cells at a ratio of 1:3. On the day of experiment, we collect the cells by digesting the cells with 0.25% trypsin, then neutralize the trypsin with RPMI 1640 with 10% fetal bovine serum. Centrifuge the cells at 800 rpm, and then resuspend the cells in sterile PBS. After counting the density of cells, adjust the cells to 1×10^5/ml for tumor cells inoculation. (2) 4T1 cells are mixed well before inoculation. Pipet 0.3 ml of cells by a 1 ml sterile syringe, and inject 0.1 ml of cells per mouse (namely 1×10^4 4 T1 cells per mouse). (1) 4T1 murine breast tumor cell line was intravenously injected to form lung metastatic tumors in Balb/c mice. Lung metastatic nodules would develop about 10-15 days after 1×10^4 4 T1 cells were inoculated. (2) Set the day of inoculation as day 0, at day 12 after inoculation, different doses of naringenin (Nar), namely 50, 100 and 200 mg/kg (suspended in 1% CMC-Na), were administered orally. The mice received γ-ray irradiation (8 Gy×2 f) at day 14 and day 15 after inoculation. […] The administration of either naringenin or dexamethasone plus cefixime continued until the mice started to die, and the survivals were observed and recorded. […]

[5] = 200 mg/kg oral, 12 Gy γ-ray, compared to 4T1+IR group

In the case of `O=C1C[C@@H](c2ccc(O)cc2)Oc2cc(O)cc(O)c21` [naringenin], the “number of tumor nodules in lungs” value (LLC lung tumor; 100 mg/kg oral, 12 Gy γ-ray at day 14, compared to LLC and LLC+IR group) was “significantly decreased”, the “lung injury (pathological analysis)” value (LLC lung tumor; 100 mg/kg oral, 12 Gy γ-ray, LLC+IR+Nar vs LLC+IR) was “significantly alleviated” and the “survival of mice bearing LLC lung tumor after radiotherapy” value (LLC lung tumor; FIG. 5 legend) was “prolongs the survival”. The “release of inflammatory cytokine IL-1β” value [1] was “significantly reduces”, the antioxidant capacity [2] was “very weak” and the “number of tumor nodules in lungs” value ([3]; 200 mg/kg oral from day 12, 12 Gy γ-ray at day 14, day 28, compared to 4T1 group and 4T1+IR group) was “decreased”. For the same molecule, the “lung injury and fibrosis (pathological analysis)” value ([3]; 200 mg/kg oral, 12 Gy γ-ray, day 28, 4T1+IR+Nar vs 4T1+IR) was “markedly alleviated”, the “serum level of IFN-γ” value [3, 5] was “significantly changed” and the “serum level of IL-1β” value [3, 5] was “significantly changed”. The “serum level of IL-6” value [3, 5] was “significantly changed”, the “survival of tumor-bearing mice compared with positive drugs (DXM+CXL)” value ([4]; 100 mg/kg oral vs dexamethasone 0.25 mg/kg plus cefixime 200 mg/kg) was “improvement in the survival” and the “sensitizing/synergizing effect combined with radiotherapy (survival)” value ([4]; 100 mg/kg oral, compared among the 3 doses) was “highest sensitizing/synergizing effect”. For the same molecule, the “survival of tumor-bearing mice” value ([4]; 50, 100 and 200 mg/kg oral, γ-ray 8 Gy×2 f, compared with 4T1+IR group) was “significantly prolonged”.
